Where two headings read alike, the source gives them in different places.
What was measured:
OXA-48 [1] = target: T1, OXA-48 (Klebsiella pneumoniae, UniProt Q6XEC0); test: Enzyme inhibition assay against purified OXA-48 with nitrocefin as substrate; type: biochemical; settings: for percent inhibition against OXA-48 / inhibition at 50 µM: nitrocefin substrate; for percent inhibition against OXA-48: 50 µM
T1 construct: made in house; host or cells: E. coli BL21(DE3)
Procedure: The inhibitory activity of compounds against the purified OXA-48 was tested on a BioTek HTS reader. The reactions were conducted in 0.1 M phosphate buffer (pH 7.0) supplemented with 50 mM NaHCO3 at 25°C with a final assay volume of 100 μL. The concentrations of enzyme and substrate were 12 nM and 200 μM, respectively. The initial reaction rates in the absence and presence of the compound were monitored at 495 nm in triplicate. The inhibitor concentration causing a 50% decrease in enzyme activity (IC50) was determined by plotting the percent inhibition against the log10 of the inhibitor concentration and fitting the data in a dose–response-inhibition model using GraphPad Prism 7.0.
Quercetin is a member of the flavonoid class with diverse structures obtained from nature, some of which have been used for the treatment of infectious diseases in traditional medical systems ([Farhadi et al., 2019]). To investigate whether quercetin and other flavonoids are OXA-48 inhibitors, the enzyme inhibition assays were conducted on a BioTek HTS reader using nitrocefin as a substrate. The concentrations of enzyme and substrate were 12 nM and 200 μM, respectively. The initial hydrolysis rate of nitrocefin was monitored at 495 nm. The percentage inhibition is defined as the enzyme activity in the absence of inhibitor (100%) minus the remaining activity in the presence of inhibitor.

OXA-48 [2] = target: T1, OXA-48; test: Inhibition kinetics (Lineweaver-Burk plots) of OXA-48-catalyzed nitrocefin hydrolysis; type: biochemical
Procedure: The inhibition mode of quercetin and the inhibition constant (K i) were determined using a Lineweaver–Burk plot by fitting the initial rate versus the substrate concentration at each inhibitor concentration using SigmaPlot 12.0. The nitrocefin concentrations were 25, 50, 75, and 100 μM, respectively. The initial velocity was determined by measuring the […] as described above. All reaction rates were determined in triplicate.
To determine the inhibition mode of the flavonoids, the inhibition kinetics of quercetin, fisetin and luteolin against OXA-48 in the presence of different concentrations of substrate were determined, and the inhibition modes were determined by generating Lineweaver-Burk plots.

[3] = tested on: E.coli BW25113 ∆acrA∆bamB (OXA-48); type: cell-based; settings: for reduction in the piperacillin MIC: compound at 64 μg/mL
Procedure: (§1) The recombinant plasmid containing the Pbla promoter and OXA-48 constructed above was then transformed into BW25113, BW25113 ∆acrA, BW25113 ∆bamB, and BW25113 ∆acrA∆bamB. The above strains were used to study the minimum inhibitory concentration (MIC). Antibiotic susceptibility tests were performed by the microdilution method following Clinical and Laboratory Standards Institute (CLSI) criteria ([CLSI, 2015]). Four E. coli strains expressing OXA-48 were used to assess the inhibitors. The susceptibility to piperacillin/imipenem combined with the compound at a concentration of 16 or 64 μg/mL was determined. […] Each measurement was conducted in triplicate. The fractional inhibitory concentration index (FICI) was determined according to the following formula: FICI = MIC (QT) in combination/MIC (QT) alone + MIC (PIP) in combination/MIC (PIP) alone. The drug interactions are defined as synergistic if the FICI is ≤0.5, indifferent if the FICI is >0.5 and ≤4.0, and antagonistic if the FICI is >4.0.
(§2) To investigate whether the compounds could restore the antimicrobial activity of β-lactam, the MICs of β-lactam antibiotics against resistant Gram-negative bacteria in the absence and presence of compounds (fisetin, 3′,4′,7-trihydroxyflavone, luteolin or quercetin) were determined by using published guidelines described by CLSI ([CLSI, 2015]). Specifically, we used OXA-48 producing strains E. coli BW25113, BW25113 ∆acrA, BW25113 ∆bamB, and BW25113 ∆acrA∆bamB as resistant Gram-negative bacteria. […] Imipenem, a carbapenem antibiotic, was applied at increasing concentrations ranging from 0.03 μg/mL to 4 μg/mL. The compounds were tested at 64 and 16 μg/mL.

mice = settings: ref Ardeshir et al., 2018; cited from earlier work
KPC-2 = tested on: KPC-2; set-up: method as in Papp-Wallace et al., 2010; settings: for KPC-2; ref Papp-Wallace et al., 2010; cited from earlier work
E.coli BW25113 (OXA-48) = type: cell-based
Procedure: as §1, §2

[4] = tested on: E.coli BW25113 ∆acrA (OXA-48); type: cell-based
Procedure: as §1, §2

[5] = tested on: E.coli BW25113 ∆bamB (OXA-48); type: cell-based
Procedure: as §1, §2

[6] = tested on: E. coli BW25113 ∆acrA∆bamB (OXA-48); test: Mouse systemic infection model; type: in vivo, Kunming mice; settings: 10 mg/kg each, intravenous, 1 h post infection; organs 24 h post-infection; vs untreated group
[7] = read-out: percent inhibition against OXA-48, at 50 μM compound
[8] = purified OXA-48 12 nM, nitrocefin 200 μM, 0.1 M phosphate buffer pH 7.0, 50 mM NaHCO3, 25°C, read-out: IC50 against OXA-48

T1 sequence (Q6XEC0 23-265 limits assumed): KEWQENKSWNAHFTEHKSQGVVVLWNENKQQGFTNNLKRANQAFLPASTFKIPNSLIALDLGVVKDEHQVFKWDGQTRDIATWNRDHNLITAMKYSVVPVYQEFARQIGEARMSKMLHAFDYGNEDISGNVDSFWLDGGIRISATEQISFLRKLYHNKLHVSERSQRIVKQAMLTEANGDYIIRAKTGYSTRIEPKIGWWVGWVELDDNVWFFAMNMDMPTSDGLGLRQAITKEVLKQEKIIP

Which “percent inhibition against OXA-48” value (OXA-48 [1]; at 50 μM compound) does the source give for `COc1ccc(-c2cc(=O)c3c(O)cc(O[C@@H]4O[C@H](CO[C@@H]5O[C@@H](C)[C@H](O)[C@@H](O)[C@H]5O)[C@@H](O)[C@H](O)[C@H]4O)cc3o2)cc1O` [Diosmin] here?
Its value is 11%.

And the inhibition at 50 µM (OXA-48 [1]; [7])?
Its inhibition at 50 µM is less than 20%.

For `O=c1cc(-c2ccc(O)c(O)c2)oc2cc(O)cc(O)c12` [Luteolin], which “percent inhibition against OXA-48” value (OXA-48 [1]; at 50 μM compound) is on record?
Its value is 81%.

And the “percent inhibition against OXA-48” value (OXA-48 [1]; at 50 μM compound, listed as luteolin)?
Its value is “more than 50%”.

What about the IC50 (OXA-48 [1]; [8]) of the same molecule?
The IC50 was 0.55 ± 0.02 µM.

And the inhibition mode (OXA-48 [2]; Lineweaver-Burk plots, Km unchanged, Vmax decreased)?
The inhibition mode was “noncompetitively inhibited”.

And the Ki (OXA-48 [2]; nitrocefin 25, 50, 75, 100 μM, Lineweaver-Burk)?
Its Ki is 0.82 ± 0.05 µM.

What about the “reduction in the piperacillin MIC” value [3] of the same molecule?
The value was 4 fold.

And the “MIC decrease for imipenem” value ([3]; compound at a dose of 64 μg/mL)?
Its value is 2 fold.

And the LD50 (mice)?
The LD50 was 150 mg/kg.

With `COc1ccc(-c2cc(=O)c3c(OC)c(OC)c(OC)c(OC)c3o2)cc1` [Tangeretin] as the molecule, how does the inhibition at 50 µM (OXA-48 [1]; [7]) read?
The inhibition at 50 µM was 7%.

With `C[C@@H]1O[C@@H](OC[C@H]2O[C@@H](Oc3c(-c4ccc(O)c(O)c4)oc4cc(O)cc(O)c4c3=O)[C@H](O)[C@@H](O)[C@@H]2O)[C@H](O)[C@H](O)[C@H]1O` [Rutin] as the molecule, how does the “percent inhibition against OXA-48” value (OXA-48 [1]; at 50 μM compound) read?
Its value is 9%.

And the “inhibitory activity against OXA-48 (in words)” value (OXA-48 [1]; larger group at position 3)?
The value was “no inhibitory activity”.

Which IC50 (OXA-48 [1]) does the source give for `O=c1c(O)c(-c2ccccc2)oc2cc(O)cc(O)c12` [Galangin] here?
Its IC50 is 216 ± 15 µM.

What about the “percent inhibition against OXA-48” value (OXA-48 [1]; at 50 μM compound) of the same molecule?
The value was 3%.

What about the “percent inhibition against OXA-48” value (OXA-48 [1]; at 50 μM compound, listed as galangin) of the same molecule?
Its value is “less than 20%”.

Which IC50 (OXA-48 [1]) does the source give for `O=c1cc(-c2ccc(O)cc2)oc2cc(O)cc(O)c12` [Apigenin] here?
Its IC50 is 3.64 ± 0.24 µM.

And the “percent inhibition against OXA-48” value (OXA-48 [1]; at 50 μM compound)?
The value was 77%.

And the “percent inhibition against OXA-48” value (OXA-48 [1]; at 50 μM compound, listed as apigenin)?
The value was “more than 50%”.

Which results are given for `COc1ccc(-c2oc3c(CC=C(C)C)c(O[C@@H]4O[C@H](CO)[C@@H](O)[C@H](O)[C@H]4O)cc(O)c3c(=O)c2O[C@@H]2O[C@@H](C)[C@H](O)[C@@H](O)[C@H]2O)cc1` [Icariin]?
percent inhibition against OXA-48 (OXA-48 [1]; at 50 μM compound): 0.3%; percent inhibition against OXA-48 (OXA-48 [1]; at 50 μM compound, listed as icarlin): less than 20%

What does the source list for `O=C1c2c(O)cc(O)cc2OC(c2ccc(O)c(O)c2)C1O` (centres unmarked) [Taxifolin]?
IC50 (OXA-48 [1]): 3.22 ± 0.23 µM; percent inhibition against OXA-48 (OXA-48 [1]; at 50 μM compound): 76%

Which partition ratio (KPC-2) does the source give for `O=C(O)[C@H]1/C(=C/CO)O[C@@H]2CC(=O)N21` [clavulanic acid] here?
Its partition ratio is 2,500.

Which results are given for `CCN1CCN(C(=O)N[C@@H](C(=O)N[C@@H]2C(=O)N3[C@@H]2SC(C)(C)[C@@H]3C(=O)O)c2ccccc2)C(=O)C1=O` [Piperacillin]?
Antibiotic MIC (E.coli BW25113 (OXA-48); inhibitor at 16 mg/L): 4096 µg/mL; Antibiotic MIC (E.coli BW25113 (OXA-48); inhibitor at 64 mg/L): 4096 µg/mL; Antibiotic MIC ([4]; inhibitor at 16 mg/L): 4096 µg/mL; Antibiotic MIC ([4]; inhibitor at 64 mg/L): 4096 µg/mL; increase in the piperacillin susceptibility ([3]; codeletion of bamB and acrA vs wild type): 8 fold; Antibiotic MIC ([3]; inhibitor at 16 mg/L): 512 µg/mL; Antibiotic MIC ([3]; inhibitor at 64 mg/L): 512 µg/mL; increase in the piperacillin susceptibility ([5]; deletion of bamB alone vs wild type): 4 fold; Antibiotic MIC ([5]; inhibitor at 16 mg/L): 1024 µg/mL; Antibiotic MIC ([5]; inhibitor at 64 mg/L): 1024 µg/mL; bacterial load in spleen and liver [6]: did not show a significant reduction of bacterial load

What does the source list for `C[C@@H](O)[C@H]1C(=O)N2C(C(=O)O)=C(SCCN=CN)C[C@H]12` [Imipenem]?
Antibiotic MIC (E.coli BW25113 (OXA-48); inhibitor at 16 mg/L): 4 µg/mL; Antibiotic MIC (E.coli BW25113 (OXA-48); inhibitor at 64 mg/L): 4 µg/mL; Antibiotic MIC ([4]; inhibitor at 16 mg/L): 4 µg/mL; Antibiotic MIC ([4]; inhibitor at 64 mg/L): 4 µg/mL; Antibiotic MIC ([3]; inhibitor at 16 mg/L): 4 µg/mL; Antibiotic MIC ([3]; inhibitor at 64 mg/L): 4 µg/mL; Antibiotic MIC ([5]; inhibitor at 16 mg/L): 4 µg/mL; Antibiotic MIC ([5]; inhibitor at 64 mg/L): 4 µg/mL

With `O=c1cc(-c2ccc(O)c(O)c2)oc2cc(O)ccc12` [3′,4′,7-trihydroxyflavone] as the molecule, how does the IC50 (OXA-48 [1]) read?
The IC50 was 1.89 ± 0.11 µM.

And the “percent inhibition against OXA-48” value (OXA-48 [1]; at 50 μM compound)?
The value was “more than 50%”.

What about the “percent inhibition against OXA-48” value (OXA-48 [1]; at 50 μM compound, listed as 3',4',7-trihydroxyflavone) of the same molecule?
Its value is 80%.

And the “reduction in the piperacillin MIC” value [3]?
The value was 8 fold.

What does the source list for `O=C1C[C@@H](c2ccc(O)cc2)Oc2cc(O)cc(O)c21` [Naringenin]?
IC50 (OXA-48 [1]): 68.1 ± 4.12 µM; inhibition at 50 µM (OXA-48 [1]; at 50 μM compound, read-out: percent inhibition against OXA-48): 27%

Which results are given for `O=c1c(O)c(-c2ccc(O)cc2)oc2cc(O)cc(O)c12` [Kaempferol]?
IC50 (OXA-48 [1]): 4.54 ± 0.05 µM; percent inhibition against OXA-48 (OXA-48 [1]; at 50 μM compound): 76%; percent inhibition against OXA-48 (OXA-48 [1]; at 50 μM compound, listed as kaempferol): more than 50%

Which results are given for `O=c1cc(-c2ccccc2)oc2cc(O)cc(O)c12` [Chrysin]?
IC50 (OXA-48 [1]): 108 ± 11 µM; percent inhibition against OXA-48 (OXA-48 [1]; at 50 μM compound): 8%; percent inhibition against OXA-48 (OXA-48 [1]; at 50 μM compound, listed as chrysin): less than 20%

Which inhibition at 50 µM (OXA-48 [1]; [7]) does the source give for `O=C(O)[C@H]1O[C@@H](Oc2cc3oc(-c4ccccc4)cc(=O)c3c(O)c2O)[C@H](O)[C@@H](O)[C@@H]1O` [Baicalin] here?
The inhibition at 50 µM was 25%.

Which “percent inhibition against OXA-48” value (OXA-48 [1]; at 50 μM compound) does the source give for `O=c1c(O[C@@H]2O[C@H](CO)[C@@H](O)[C@H](O)[C@H]2O)c(-c2ccc(O)c(O)c2)oc2cc(O)cc(O)c12` [Isoquercitrin] here?
Its value is 61%.

What about the IC50 (OXA-48 [1]; [8]) of the same molecule?
The IC50 was 11.5 ± 1.22 µM.

What about the inhibition at 50 µM (OXA-48 [1]; [7]) of the same molecule?
The inhibition at 50 µM was greater than 50%.

— publication PMC9258905, “Discovery of Quercetin and Its Analogs as Potent OXA-48 Beta-Lactamase Inhibitors” (Frontiers in Pharmacology, 2022)
